In article PMC12670164, “In vitro and clinical data demonstrate negligible risk of drug–drug interactions with opelconazole, a novel inhaled antifungal agent” (Journal of Antimicrobial Chemotherapy, 2025):

How the values were obtained:
[1] = design: method as in unpublished data; L.M.R. Cass and L. Berman; conditions: ref unpublished data; L.M.R. Cass and L. Berman; cited from earlier work
[2] = system: CYP2B6; test: CYP induction, mRNA endpoint, cryopreserved human hepatocytes; assay type: in vitro ADME; conditions: any of the three donors
Experimental: The hepatocyte cells were dosed with opelconazole (0.012, 0.03, 0.12, 0.3, 1.2 and 3 μM) and positive control compounds (omeprazole for CYP1A2 and rifampicin for CYP3A4).

[3] = design: method as in PMID 33340279; conditions: cited from earlier work
[4] = target: CYP3A4 (Homo sapiens, UniProt P08684); assay type: in vitro ADME; conditions: incubated with 0.01 and 0.1 µM opelconazole
Chain of CYP3A4 (P08684 whole entry): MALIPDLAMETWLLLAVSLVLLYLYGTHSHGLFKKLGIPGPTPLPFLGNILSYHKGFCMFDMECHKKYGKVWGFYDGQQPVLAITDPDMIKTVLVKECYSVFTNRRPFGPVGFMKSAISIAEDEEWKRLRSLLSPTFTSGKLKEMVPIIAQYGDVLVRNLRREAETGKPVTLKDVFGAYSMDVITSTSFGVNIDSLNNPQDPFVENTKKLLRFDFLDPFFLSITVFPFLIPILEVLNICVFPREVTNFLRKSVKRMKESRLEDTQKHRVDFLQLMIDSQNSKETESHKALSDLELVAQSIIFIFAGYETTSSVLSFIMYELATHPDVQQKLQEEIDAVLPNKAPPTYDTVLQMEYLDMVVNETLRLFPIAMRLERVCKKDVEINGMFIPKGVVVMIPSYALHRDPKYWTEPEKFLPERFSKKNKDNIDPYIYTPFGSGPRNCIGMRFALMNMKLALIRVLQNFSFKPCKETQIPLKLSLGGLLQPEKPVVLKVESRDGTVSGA
Experimental: The testing of opelconazole as a potential substrate of CYP1A2, 2B6, 2C8, 2C9, 2C19, 2D6 and 3A4 was determined in vitro using recombinant CYP enzymes. Two concentrations of opelconazole (0.01 and 0.1 µM) were tested with each of the seven CYPs.
The relative contributions of CYP3A4 and CYP2C9 were ∼75% and 25%, respectively, when incubated with 0.01 and 0.1 µM opelconazole.

[5] = Phase 1 study: safety and tolerability; assay type: in vivo, human
Experimental: Safety and tolerability were assessed by monitoring the incidence, nature and severity of adverse events (AEs) as well as by vital-sign measurements, 12-lead ECGs, clinical laboratory testing (haematology, chemistry and urinalysis), physical examination and lung function testing [forced expiratory volume in one second (FEV1) and forced vital capacity (FVC)].

## Cc1cc(N2CCN(c3ccc(C(=O)Nc4ccc(F)cc4)cc3)CC2)ccc1OC[C@@H]1CO[C@@](Cn2cncn2)(c2ccc(F)cc2F)C1 [opelconazole]
[1]
  oral bioavailability of any swallowed fraction: negligible
[2]
  CYP2B6 mRNA expression: did not increase mRNA expression
[3]
  plasma protein binding (PPB): 97%
[4]
  relative contribution of CYP3A4 to metabolism of opelconazole: ~75%
[5]; 5/24 participants, all mild, 14.8 mg twice daily for 14 days with midazolam/caffeine
  headache considered related to inhaled opelconazole, participants: 20.8%
[5]; any participant who received opelconazole
  post-dose acute bronchospasm: no evidence
[5]; any timepoint during the study
  changes in lung function (FEV1 and FVC): No clinically significant changes
[5]; healthy volunteers N = 24, 14.8 mg twice daily for 14 days
  deaths or serious AEs: No deaths or serious AEs were reported
[5]; inhaled 14.8 mg twice daily
  tolerability: generally well tolerated
